Biological target: Bruton's Tyrosine Kinase (inactivated state) (Homo sapiens (Human), UniProt Q06187)
Assay: Bruton's Tyrosine Kinase (BTK) Inhibition TR-FRET (Time Resolved FRET) competition assay
Assay type: binding
Conditions: inactivated state of BTK; Kinase Tracer 178; incubated 18-24 h at 14° C.
Procedure: This BTK competition assay measures compound potency (IC50) for the inactivated state of Bruton's Tyrosine Kinase using FRET (Forster/Flouresence Resonance Energy Transfer) technology. The BTK-Eu complex was incubated on ice one hour prior to use at a starting concentration of 50 nM BTK-Bioease™: 10 nM Eu-streptavidin (Perkin-Elmer Catalog# AD0062). The assay buffer consisted of 20 mM HEPES (pH 7.15), 0.1 mM DTT, 10 mM MgCl2, 0.5 mg/ml BSA with 3% Kinase Stabilizer (Fremont Biosolutions, Catalog # STB-K02). After 1 h, the reaction mixture from above was diluted 10 fold in assay buffer to make 5 nM BTK: 1 nM Eu-Streptavidin complex (donor fluorophore). 18 μl of a mixture of 0.11 nM BTK-Eu and 0.11 nM Kinase Tracer 178 (Invitrogen, Catalog # PV5593,) with BTK-Eu alone as no negative control, was then dispensed into 384-well flat bottom plates (Greiner, 784076). Compounds to be tested in assay were prepared as 10× concentrations and serial dilution in half-log increments was performed in DMSO so as to generate 10 point curves. To initiate the FRET reaction, compounds prepared as 10× stock in DMSO was added to the plates and the plates were incubated 18-24 h at 14° C.
After the incubation the plates were read on a BMG Pherastar Fluorescent plate reader (or equivalent) and used to measure the emission energy from the europium donor fluorophore (620 nm emission) and the FRET (665 nm emission). The negative control well values were averaged to obtain the mean minimum. The positive “no inhibitor” control wells were averaged to obtain the mean maximum. Percent of maximal FRET was calculated using following equation: % max FRET=100×[(FSRcmpd−FSRmean min)/(FSRmean max−FSRmean min)] where FSR=FRET Signal ratio. % Max FRET curves were plotted in Activity Base (Excel) and the IC50(%), hill slope, z′ and % CV were determined. The mean IC50 and standard deviation will be derived from duplicate curves (singlet inhibition curves from two independent dilutions) using Microsoft Excel.

Bruton's Tyrosine Kinase (inactivated state), sequence (Q06187 whole entry): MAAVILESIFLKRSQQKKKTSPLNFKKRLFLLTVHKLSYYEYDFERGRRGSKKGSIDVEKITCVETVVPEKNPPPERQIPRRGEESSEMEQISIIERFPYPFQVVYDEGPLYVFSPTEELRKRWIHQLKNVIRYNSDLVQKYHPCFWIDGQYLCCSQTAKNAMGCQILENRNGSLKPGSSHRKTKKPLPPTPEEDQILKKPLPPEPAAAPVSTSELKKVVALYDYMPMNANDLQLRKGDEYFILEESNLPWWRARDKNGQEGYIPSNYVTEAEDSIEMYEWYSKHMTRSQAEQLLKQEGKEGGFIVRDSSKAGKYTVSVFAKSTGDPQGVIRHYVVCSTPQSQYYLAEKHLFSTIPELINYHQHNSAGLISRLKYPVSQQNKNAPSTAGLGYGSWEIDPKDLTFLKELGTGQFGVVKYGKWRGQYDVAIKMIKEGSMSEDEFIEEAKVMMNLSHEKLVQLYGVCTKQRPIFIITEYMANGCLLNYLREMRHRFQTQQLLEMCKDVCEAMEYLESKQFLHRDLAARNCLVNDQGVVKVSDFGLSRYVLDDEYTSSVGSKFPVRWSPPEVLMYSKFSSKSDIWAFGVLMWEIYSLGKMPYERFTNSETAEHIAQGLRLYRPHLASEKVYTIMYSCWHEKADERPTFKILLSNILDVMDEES

Compound	IC50
Cc1cc(Oc2cccc(C#N)c2)ccc1-n1ncc(C(=O)c2cc3c(C(=O)N4CCOCC4)cccc3[nH]2)c1N [Compound 15, 3-(4-{5-Amino-4-[4-(morpholine-4-carbonyl)-1H-indole-2-carbonyl]-pyrazol-1-yl}-3-methyl-phenoxy)-benzonitrile]	93.6 nM
Cc1cc(Oc2cccc(F)c2F)ccc1-n1ncc(C(=O)c2cc3c(-n4cccn4)cccc3[nH]2)c1N [Compound 4, {5-Amino-1-[4-(2,3-difluoro-phenoxy)-2-methyl-phenyl]-1H-pyrazol-4-yl}-(4-pyrazol-1-yl-1H-indol-2-yl)-methanone]	20.8 nM
Cc1cc(Oc2cccc(C#N)c2)ccc1-n1ncc(C(=O)c2cc3c(CC#N)cccc3[nH]2)c1N [Compound 20, 3-{4-[5-Amino-4-(4-cyanomethyl-1H-indole-2-carbonyl)-pyrazol-1-yl]-3-methyl-phenoxy}-benzonitrile]	8.45 nM
Cc1cc(Oc2cccc(F)c2F)ccc1-n1ncc(C(=O)c2cc3c(Br)cccc3[nH]2)c1N [Compound 1, {5-Amino-1-[4-(2,3-difluoro-phenoxy)-2-methyl-phenyl]-1H-pyrazol-4-yl}-(4-bromo-1H-indol-2-yl)-methanone]	61.5 nM
Cc1cc(Oc2cccc(F)c2F)ccc1-n1ncc(C(=O)c2cc3c(-c4cccs4)cccc3[nH]2)c1N [Compound 5, {5-Amino-1-[4-(2,3-difluoro-phenoxy)-2-methyl-phenyl]-1H-pyrazol-4-yl}-(4-thiophen-2-yl-1H-indol-2-yl)-methanone]	214 nM
Cc1cc(Oc2cccc(F)c2F)ccc1-n1ncc(C(=O)c2cc3c(-c4ccccn4)cccc3[nH]2)c1N [Compound 8, {5-Amino-1-[4-(2,3-difluoro-phenoxy)-2-methyl-phenyl]-1H-pyrazol-4-yl}-(4-pyridin-2-yl-1H-indol-2-yl)-methanone]	6.15 nM
Cc1cc(Oc2cccc(F)c2F)ccc1-n1ncc(C(=O)c2cc3c(Cc4ccccc4)cccc3[nH]2)c1N [Compound 9, {5-Amino-1-[4-(2,3-difluoro-phenoxy)-2-methyl-phenyl]-1H-pyrazol-4-yl}-(4-benzyl-1H-indol-2-yl)-methanone]	33.1 nM
Cc1cc(Oc2cccc(C#N)c2)ccc1-n1ncc(C(=O)c2cc3c(-c4cn[nH]c4)cccc3[nH]2)c1N [Compound 14, 3-(4-{5-Amino-4-[4-(1H-pyrazol-4-yl)-1H-indole-2-carbonyl]-pyrazol-1-yl}-3-methyl-phenoxy)-benzonitrile]	8.38 nM
{5-Amino-1-[4-(2,3-difluoro-phenoxy)-2-methyl-phenyl]-1H-pyrazol-4-yl}-[4-(1-methyl-1H-pyrazol-4-yl)-1H-indol-2-yl]-methanone [Compound 7]	65.3 nM
Cc1cc(Oc2cccc(C#N)c2)ccc1-n1ncc(C(=O)c2cc3c(C(=O)N4CCN(C)CC4)cccc3[nH]2)c1N [Compound 16, 3-(4-{5-Amino-4-[4-(4-methyl-piperazine-1-carbonyl)-1H-indole-2-carbonyl]-pyrazol-1-yl}-3-methyl-phenoxy)-benzonitrile]	39.1 nM
Cc1cc(Oc2cccc(F)c2F)ccc1-n1ncc(C(=O)c2cc3c(-c4ccsc4)cccc3[nH]2)c1N [Compound 3, {5-Amino-1-[4-(2,3-difluoro-phenoxy)-2-methyl-phenyl]-1H-pyrazol-4-yl}-(4-thiophen-3-yl-1H-indol-2-yl)-methanone]	106 nM
Cc1cc(Oc2cccc(F)c2F)ccc1-n1ncc(C(=O)c2cc3c(-c4cccc(C#N)c4)cccc3[nH]2)c1N [Compound 11, 3-(2-{5-Amino-1-[4-(2,3-difluoro-phenoxy)-2-methyl-phenyl]-1H-pyrazole-4-carbonyl}-1H-indol-4-yl)-benzonitrile]	59.1 nM
Cc1cc(Oc2cccc(F)c2F)ccc1-n1ncc(C(=O)c2cc3c(-c4cn[nH]c4)cccc3[nH]2)c1N [Compound 10, {5-Amino-1-[4-(2,3-difluoro-phenoxy)-2-methyl-phenyl]-1H-pyrazol-4-yl}-[4-(1H-pyrazol-4-yl)-1H-indol-2-yl]-methanone]	4.21 nM
CNC(=O)c1cccc2[nH]c(C(=O)c3cnn(-c4ccc(Oc5cccc(C#N)c5)cc4C)c3N)cc12 [Compound 21, 2-{5-Amino-1-[4-(3-cyano-phenoxy)-2-methyl-phenyl]-1H-pyrazole-4-carbonyl}-1H-indole-4-carboxylic acid methylamide]	13 nM
Cc1cc(Oc2cccc(F)c2F)ccc1-n1ncc(C(=O)c2cc3c(-c4cccc(Cl)c4)cccc3[nH]2)c1N [Compound 12, {5-Amino-1-[4-(2,3-difluoro-phenoxy)-2-methyl-phenyl]-1H-pyrazol-4-yl}-[4-(3-chloro-phenyl)-1H-indol-2-yl]-methanone]	201 nM
Cc1cc(Oc2cccc(F)c2F)ccc1-n1ncc(C(=O)c2cc3c(-c4ccccc4)cccc3[nH]2)c1N [Compound 2, {5-Amino-1-[4-(2,3-difluoro-phenoxy)-2-methyl-phenyl]-1H-pyrazol-4-yl}-(4-phenyl-1H-indol-2-yl)-methanone]	85.1 nM
Cc1cc(Oc2cccc(F)c2F)ccc1-n1ncc(C(=O)c2cc3c(Cc4cccc(C#N)c4)cccc3[nH]2)c1N [Compound 13, 3-(2-{5-Amino-1-[4-(2,3-difluoro-phenoxy)-2-methyl-phenyl]-1H-pyrazole-4-carbonyl}-1H-indol-4-ylmethyl)-benzonitrile]	29.5 nM
COc1cccc(Cc2cccc3[nH]c(C(=O)c4cnn(-c5ccc(Oc6cccc(C#N)c6)cc5C)c4N)cc23)c1 [Compound 17, 3-(4-{5-Amino-4-[4-(3-methoxy-benzyl)-1H-indole-2-carbonyl]-pyrazol-1-yl}-3-methyl-phenoxy)-benzonitrile]	21.1 nM
Cc1cc(Oc2cccc(F)c2F)ccc1-n1ncc(C(=O)c2cc3c(C(=O)N4CCOCC4)cccc3[nH]2)c1N [Compound 6, {5-Amino-1-[4-(2,3-difluoro-phenoxy)-2-methyl-phenyl]-1H-pyrazol-4-yl}-[4-(morpholine-4-carbonyl)-1H-indol-2-yl]-methanone]	11.9 nM
